For experiment [1], the target named is T1, Dual specificity mitogen-activated protein kinase kinase 4 (Homo sapiens) (UniProt P45985).
T1 sequence (whole entry): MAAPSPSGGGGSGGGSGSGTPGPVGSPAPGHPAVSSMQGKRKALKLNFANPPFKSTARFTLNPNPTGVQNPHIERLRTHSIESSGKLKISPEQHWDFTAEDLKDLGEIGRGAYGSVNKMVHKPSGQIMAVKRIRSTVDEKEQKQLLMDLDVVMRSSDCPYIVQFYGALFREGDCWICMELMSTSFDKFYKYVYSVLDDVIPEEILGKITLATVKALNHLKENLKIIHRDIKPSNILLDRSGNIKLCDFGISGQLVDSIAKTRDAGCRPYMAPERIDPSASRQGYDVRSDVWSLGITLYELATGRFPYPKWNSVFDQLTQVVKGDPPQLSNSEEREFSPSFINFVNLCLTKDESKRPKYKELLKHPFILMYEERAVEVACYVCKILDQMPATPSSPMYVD
As to the kind of experiment: Selectivity interaction (ProQinase) EUB0000171b MAP2K4.

The target in experiment [2] is Casein kinase I isoform epsilon (Homo sapiens, UniProt P49674). The note with it: at 10 µM.
Experiment [3] addresses Ephrin type-A receptor 5 (Homo sapiens) (UniProt P54756). As to the kind of experiment: Selectivity interaction (Ambit KINOMEscan and KiNATiv profiling in Jurkat cells) EUB0000090b EPHA5. The settings on record: at 1 µM. It is filed as cell-based.
The target of experiment [4] is Protein-tyrosine kinase 6 (Homo sapiens, UniProt Q13882). The experiment can be described thus: Selectivity interaction (KinaseProfiler screening (Millipore)) EUB0000601a PTK6. The settings on record: at 3 µM.
Experiment [5] concerns the target Mitogen-activated protein kinase kinase kinase 11 (Homo sapiens) (UniProt Q16584). The note with it: at 10 µM.
For experiment [6], the target named is T2, Tyrosine-protein kinase JAK3 (Homo sapiens) (UniProt P52333).
T2 sequence (whole entry): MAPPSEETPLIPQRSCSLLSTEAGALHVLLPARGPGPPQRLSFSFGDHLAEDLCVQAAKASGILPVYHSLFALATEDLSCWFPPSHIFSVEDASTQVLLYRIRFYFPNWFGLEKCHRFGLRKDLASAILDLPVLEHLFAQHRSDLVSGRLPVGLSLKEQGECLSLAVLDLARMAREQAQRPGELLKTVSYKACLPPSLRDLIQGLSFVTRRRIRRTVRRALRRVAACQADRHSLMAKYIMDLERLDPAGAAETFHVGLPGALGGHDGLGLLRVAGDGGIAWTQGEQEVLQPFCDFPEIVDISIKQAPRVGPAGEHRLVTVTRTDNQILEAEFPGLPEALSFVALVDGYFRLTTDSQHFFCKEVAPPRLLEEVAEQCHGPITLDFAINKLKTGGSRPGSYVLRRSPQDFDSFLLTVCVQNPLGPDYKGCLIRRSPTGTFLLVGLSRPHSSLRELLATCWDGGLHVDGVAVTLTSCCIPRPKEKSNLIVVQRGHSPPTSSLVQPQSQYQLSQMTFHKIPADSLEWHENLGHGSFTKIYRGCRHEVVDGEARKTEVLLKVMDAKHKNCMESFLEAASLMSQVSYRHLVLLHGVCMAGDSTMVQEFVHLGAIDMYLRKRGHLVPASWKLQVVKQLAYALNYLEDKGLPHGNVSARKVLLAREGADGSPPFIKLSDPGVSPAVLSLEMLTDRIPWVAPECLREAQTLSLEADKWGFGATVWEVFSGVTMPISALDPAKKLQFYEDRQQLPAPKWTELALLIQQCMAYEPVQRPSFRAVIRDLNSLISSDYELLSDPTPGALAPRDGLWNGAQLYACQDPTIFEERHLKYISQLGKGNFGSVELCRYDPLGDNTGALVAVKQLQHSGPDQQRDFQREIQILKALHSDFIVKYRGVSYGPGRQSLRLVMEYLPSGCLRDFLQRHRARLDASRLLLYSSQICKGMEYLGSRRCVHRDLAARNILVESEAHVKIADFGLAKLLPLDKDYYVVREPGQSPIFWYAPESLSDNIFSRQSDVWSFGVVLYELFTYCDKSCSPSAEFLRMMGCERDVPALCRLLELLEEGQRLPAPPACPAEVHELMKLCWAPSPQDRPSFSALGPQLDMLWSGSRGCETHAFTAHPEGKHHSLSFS
The experiment can be described thus: Selectivity interaction (Antiproliferative activity against Tel-kinase transformed Ba/F3 cell line) EUB0000045b JAK3. It is filed as cell-based. The note with it: BaF3.

The target in experiment [7] is RAC-alpha serine/threonine-protein kinase (Homo sapiens, UniProt P31749). As to the kind of experiment: Selectivity interaction (Kinase panel (Z-LYTE Assay)) EUB0001632a AKT1. The settings on record: at 10 µM.
In experiment [8] the target is Dual specificity protein kinase CLK2 (Homo sapiens, UniProt P49760). As to the kind of experiment: Selectivity interaction (SelectScreen profiling (Invitrogen)) EUB0000607a CLK2. The note with it: at 2 µM.
The target in experiment [9] is T3, Serine/threonine-protein kinase D2 (Homo sapiens) (UniProt Q9BZL6).
T3 sequence (whole entry): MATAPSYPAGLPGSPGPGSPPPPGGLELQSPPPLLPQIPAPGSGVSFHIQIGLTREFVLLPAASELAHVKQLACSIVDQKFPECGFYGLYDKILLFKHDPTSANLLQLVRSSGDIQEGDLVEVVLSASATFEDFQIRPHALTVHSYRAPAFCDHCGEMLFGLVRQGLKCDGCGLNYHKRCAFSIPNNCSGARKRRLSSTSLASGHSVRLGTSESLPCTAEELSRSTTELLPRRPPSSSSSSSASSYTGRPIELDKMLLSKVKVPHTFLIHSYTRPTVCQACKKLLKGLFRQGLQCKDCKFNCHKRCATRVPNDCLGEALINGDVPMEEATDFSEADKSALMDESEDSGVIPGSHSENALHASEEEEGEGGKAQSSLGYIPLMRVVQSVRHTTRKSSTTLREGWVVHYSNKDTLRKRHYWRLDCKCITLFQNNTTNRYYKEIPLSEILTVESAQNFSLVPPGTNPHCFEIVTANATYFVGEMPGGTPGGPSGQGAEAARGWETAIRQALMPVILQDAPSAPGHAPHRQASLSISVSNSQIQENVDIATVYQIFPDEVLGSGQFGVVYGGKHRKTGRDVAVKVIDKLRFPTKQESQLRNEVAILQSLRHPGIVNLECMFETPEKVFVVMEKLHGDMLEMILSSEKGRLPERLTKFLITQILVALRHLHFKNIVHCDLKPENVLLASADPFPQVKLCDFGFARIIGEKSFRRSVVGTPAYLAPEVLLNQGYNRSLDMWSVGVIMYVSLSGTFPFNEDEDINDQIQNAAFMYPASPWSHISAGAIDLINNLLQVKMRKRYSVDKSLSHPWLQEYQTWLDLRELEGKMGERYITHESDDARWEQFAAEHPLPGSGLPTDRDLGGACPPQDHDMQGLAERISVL
As to the kind of experiment: Selectivity interaction (ActivX KiNativ screen (kinase selectivity in THP-1 cell lysates)) EUB0000639a PRKD2. It is filed as subcellular. The settings on record: lysate.

Chain of Protein-tyrosine kinase 6 (Q13882 whole entry, looked up): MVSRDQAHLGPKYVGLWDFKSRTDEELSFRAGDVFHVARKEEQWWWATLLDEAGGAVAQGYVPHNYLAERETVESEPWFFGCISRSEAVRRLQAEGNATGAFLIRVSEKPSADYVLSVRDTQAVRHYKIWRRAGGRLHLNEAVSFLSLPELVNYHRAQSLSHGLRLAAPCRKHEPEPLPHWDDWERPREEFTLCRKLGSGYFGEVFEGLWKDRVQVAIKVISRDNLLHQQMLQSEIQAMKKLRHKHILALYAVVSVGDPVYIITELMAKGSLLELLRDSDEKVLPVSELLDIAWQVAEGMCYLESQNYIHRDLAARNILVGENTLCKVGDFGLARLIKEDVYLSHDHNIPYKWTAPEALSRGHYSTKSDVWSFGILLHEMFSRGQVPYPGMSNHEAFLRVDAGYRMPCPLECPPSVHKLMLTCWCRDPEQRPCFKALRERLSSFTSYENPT
Chain of Mitogen-activated protein kinase kinase kinase 11 (Homo sapiens) (Q16584 whole entry, looked up): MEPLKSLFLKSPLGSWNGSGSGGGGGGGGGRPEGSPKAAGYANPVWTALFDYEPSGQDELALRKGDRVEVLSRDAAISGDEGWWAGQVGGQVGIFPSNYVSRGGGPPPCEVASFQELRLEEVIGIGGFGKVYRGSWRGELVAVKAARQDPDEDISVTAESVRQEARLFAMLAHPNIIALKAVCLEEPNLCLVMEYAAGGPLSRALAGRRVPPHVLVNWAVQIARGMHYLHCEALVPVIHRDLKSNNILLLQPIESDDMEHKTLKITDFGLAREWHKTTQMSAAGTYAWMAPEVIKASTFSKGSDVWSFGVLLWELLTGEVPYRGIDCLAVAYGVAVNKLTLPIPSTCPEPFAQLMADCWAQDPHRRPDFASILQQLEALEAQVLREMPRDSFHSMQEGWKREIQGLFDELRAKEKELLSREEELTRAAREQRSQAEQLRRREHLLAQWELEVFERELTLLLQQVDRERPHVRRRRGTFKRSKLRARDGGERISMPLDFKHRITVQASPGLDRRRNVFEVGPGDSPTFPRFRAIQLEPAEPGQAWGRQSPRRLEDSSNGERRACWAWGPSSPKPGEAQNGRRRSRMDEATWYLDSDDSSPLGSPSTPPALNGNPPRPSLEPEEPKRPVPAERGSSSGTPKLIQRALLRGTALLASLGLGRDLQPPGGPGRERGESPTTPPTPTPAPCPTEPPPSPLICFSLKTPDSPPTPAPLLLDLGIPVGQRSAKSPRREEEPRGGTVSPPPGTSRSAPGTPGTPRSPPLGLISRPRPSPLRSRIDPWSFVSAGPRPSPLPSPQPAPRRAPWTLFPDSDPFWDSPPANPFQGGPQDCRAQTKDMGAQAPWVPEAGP
Chain of RAC-alpha serine/threonine-protein kinase (P31749 whole entry): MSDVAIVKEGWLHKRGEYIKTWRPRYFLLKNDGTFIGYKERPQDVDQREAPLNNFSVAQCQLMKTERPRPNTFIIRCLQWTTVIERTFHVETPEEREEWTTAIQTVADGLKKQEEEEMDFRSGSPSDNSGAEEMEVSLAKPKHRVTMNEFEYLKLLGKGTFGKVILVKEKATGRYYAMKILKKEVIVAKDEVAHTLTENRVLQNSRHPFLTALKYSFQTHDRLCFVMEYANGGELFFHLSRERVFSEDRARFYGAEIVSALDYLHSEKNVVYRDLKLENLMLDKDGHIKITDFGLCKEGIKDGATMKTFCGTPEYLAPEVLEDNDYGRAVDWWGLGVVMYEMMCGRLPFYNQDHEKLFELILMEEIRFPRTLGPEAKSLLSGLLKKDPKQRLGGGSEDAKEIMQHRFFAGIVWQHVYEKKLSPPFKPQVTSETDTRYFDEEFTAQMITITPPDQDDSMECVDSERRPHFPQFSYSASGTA
Chain of Casein kinase I isoform epsilon (P49674 whole entry, looked up, canonical isoform): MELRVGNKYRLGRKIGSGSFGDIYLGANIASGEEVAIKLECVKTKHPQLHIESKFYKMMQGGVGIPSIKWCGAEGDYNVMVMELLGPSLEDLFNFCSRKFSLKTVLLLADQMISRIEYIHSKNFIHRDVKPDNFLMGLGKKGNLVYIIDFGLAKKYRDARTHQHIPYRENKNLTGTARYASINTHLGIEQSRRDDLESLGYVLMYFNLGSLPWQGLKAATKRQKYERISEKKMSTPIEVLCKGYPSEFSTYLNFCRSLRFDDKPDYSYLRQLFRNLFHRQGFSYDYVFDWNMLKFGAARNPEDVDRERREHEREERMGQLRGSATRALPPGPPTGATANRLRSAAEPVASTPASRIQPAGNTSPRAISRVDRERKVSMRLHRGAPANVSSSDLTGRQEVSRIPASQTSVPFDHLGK
Chain of Dual specificity protein kinase CLK2 (P49760 whole entry, looked up): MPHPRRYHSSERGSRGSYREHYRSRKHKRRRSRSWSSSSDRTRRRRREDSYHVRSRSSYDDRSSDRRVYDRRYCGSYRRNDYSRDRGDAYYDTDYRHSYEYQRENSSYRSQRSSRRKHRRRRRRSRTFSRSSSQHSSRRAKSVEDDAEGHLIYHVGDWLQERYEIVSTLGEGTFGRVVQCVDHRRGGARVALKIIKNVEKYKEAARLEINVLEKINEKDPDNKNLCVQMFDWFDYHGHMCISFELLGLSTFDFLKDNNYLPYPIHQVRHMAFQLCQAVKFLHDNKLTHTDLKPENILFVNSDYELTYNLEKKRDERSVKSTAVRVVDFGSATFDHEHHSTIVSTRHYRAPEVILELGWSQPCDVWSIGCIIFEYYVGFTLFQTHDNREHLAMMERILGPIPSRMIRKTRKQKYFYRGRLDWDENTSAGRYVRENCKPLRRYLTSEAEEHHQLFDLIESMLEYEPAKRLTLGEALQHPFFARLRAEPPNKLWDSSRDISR
Chain of Ephrin type-A receptor 5 (Homo sapiens) (P54756 whole entry): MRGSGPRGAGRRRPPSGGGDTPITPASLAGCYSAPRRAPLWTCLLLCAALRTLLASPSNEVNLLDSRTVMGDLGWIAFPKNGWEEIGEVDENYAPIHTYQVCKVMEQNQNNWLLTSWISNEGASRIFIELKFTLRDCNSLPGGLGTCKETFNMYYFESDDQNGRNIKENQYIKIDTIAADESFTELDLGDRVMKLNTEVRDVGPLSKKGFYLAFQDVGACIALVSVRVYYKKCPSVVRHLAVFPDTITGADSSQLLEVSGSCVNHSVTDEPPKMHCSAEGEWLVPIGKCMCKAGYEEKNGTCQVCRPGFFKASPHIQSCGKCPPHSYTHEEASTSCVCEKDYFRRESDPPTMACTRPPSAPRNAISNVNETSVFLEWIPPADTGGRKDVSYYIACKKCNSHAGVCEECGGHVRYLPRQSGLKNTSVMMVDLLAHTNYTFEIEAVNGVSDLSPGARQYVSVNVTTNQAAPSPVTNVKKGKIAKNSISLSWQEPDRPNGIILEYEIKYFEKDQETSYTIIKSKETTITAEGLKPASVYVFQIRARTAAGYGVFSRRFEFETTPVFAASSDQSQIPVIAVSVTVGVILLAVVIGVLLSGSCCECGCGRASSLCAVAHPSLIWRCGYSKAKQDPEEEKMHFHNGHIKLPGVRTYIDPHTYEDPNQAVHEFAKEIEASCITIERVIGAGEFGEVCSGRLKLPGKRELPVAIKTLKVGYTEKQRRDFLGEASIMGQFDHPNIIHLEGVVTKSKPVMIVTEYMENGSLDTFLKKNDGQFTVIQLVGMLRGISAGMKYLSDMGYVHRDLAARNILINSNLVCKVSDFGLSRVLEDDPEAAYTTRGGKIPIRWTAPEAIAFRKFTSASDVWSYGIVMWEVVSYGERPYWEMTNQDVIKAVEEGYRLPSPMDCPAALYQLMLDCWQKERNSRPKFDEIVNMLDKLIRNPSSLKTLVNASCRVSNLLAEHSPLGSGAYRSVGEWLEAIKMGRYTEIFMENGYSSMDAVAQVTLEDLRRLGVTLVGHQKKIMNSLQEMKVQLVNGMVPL

For the compound `C=CC(=O)Nc1cccc(C(=O)Nc2ccc(Nc3cc(-c4[nH]c(SC)nc4C)ccn3)cc2)c1`, the values for the % of control in [1] (at 1 µM) and in experiment [1] (at 5 µM) were 71% and 90%, respectively.
With `Cc1cc([C@@H](C)Nc2ccccc2C(=O)O)c2nc(N3CCOCC3)cc(=O)n2c1` [AZD-6482], in [2], the % of control was found to be 98%.
In the case of `CN(C)C/C=C/C(=O)Nc1ccc(C(=O)N2CCCC(Nc3ncc(Cl)c(-c4c[nH]c5ccccc45)n3)C2)cc1` (centres undefined), the % of control in experiment [3] came to 89%.
Turning to `CCc1cc(Nc2nccc(-c3c(-c4ccc(OC)c(C(=O)Nc5c(F)cccc5F)c4)nc4ccccn34)n2)c(OC)cc1N1CCC(N2CCN(S(C)(=O)=O)CC2)CC1`, the % of inhibition in [4] worked out at 65%.
Take `CCN(CC)CCCCNc1ncc2cc(-c3cc(OC)cc(OC)c3)c(NC(=O)NC(C)(C)C)nc2n1`: the % of control in [5] worked out at 100%.
`C=CC(=O)Nc1cc(-n2c(=O)ccc3cnc4ccc(-c5ccc(NS(C)(=O)=O)cc5)cc4c32)ccc1C` returned a GIC50 in [6] of 7.98 µM.
Regarding `Cn1cc(-n2cnc3c(NCc4nc5cc(Cl)c(Cl)cc5[nH]4)nc(N4CCOCC4)nc32)cn1`, the % of control in experiment [7] is -0.23%.
In experiment [8], `CNC(=O)Nc1ccc(-c2nc(N3CC4CCC(C3)O4)c3cnn(C4CCC5(CC4)OCCO5)c3n2)cc1` gave a % of inhibition of 0%.
Turning to `CC[C@@H]1[C@H](F)C(=O)N[C@@H]1COc1nccc2cc(C(N)=O)c(OC)cc12` [ZIMLOVISERTIB], the % of inhibition in experiment [9] (at 0.01 µM) was found to be 1.1%; in experiment [9] (at 0.04 µM) it was 12.3%; in [9] (at 0.2 µM) it was 6.8%; in experiment [9] (at 1 µM) it was 11.9%; in experiment [9] (at 5 µM) it was 5.6%.

For the origin of these results see ChEMBL document CHEMBL5465560, “Selectivity Literature for EUbOPEN Chemogenomic Library” (2024).
